Test results taken from the NIST ThermoML archive (doi:10.1016/j.fluid.2014.07.041).
± gives the expanded uncertainty stated by the source.

Legend:
[1] = 298.15 K; 101.33 kPa; Liquid; Vibrating tube method
[2] = Boiling temperature at pressure P; conditions: 101.33 kPa; Liquid; Ebulliometric method (Recirculating still)

| Compound | mass density [1] [kg/m3] | Boiling temperature at pressure P [2] [°C] |
| --- | --- | --- |
| CCOCCO [2-ethoxyethan-1-ol] | 928.73 ± 2 | 135.47 ± 0.1 |
| CC1CCCCC1 [methylcyclohexane] | 766.29 ± 2 | 100.73 ± 0.1 |
| COCCO [2-methoxyethan-1-ol] | 965.31 ± 2 | 124.52 ± 0.1 |
